Results reported in ChEMBL document CHEMBL5380868, “Filling a nick in NIK: Extending the half-life of a NIK inhibitor through structure-based drug design” (Bioorg Med Chem Lett, 2023).
≈ marks a conversion by molar mass, not a printed value.

Key:
[1] = Plasma clearance in iv dosed C57BL/6J mouse; format: ADME, organism-based
[2] = Plasma clearance in iv dosed Sprague-Dawley rat; format: ADME, organism-based
[3] = Plasma clearance in iv dosed non-naive Beagle dog; format: ADME, organism-based, Canis lupus familiaris
[4] = Plasma clearance in iv dosed Cynomolgus monkey; format: ADME, organism-based, Macaca fascicularis; details: in vivo
[5] = Unbound plasma clearance in iv dosed C57BL/6J mouse; format: ADME, organism-based; details: in vivo
[6] = Unbound plasma clearance in iv dosed Sprague-Dawley rat; format: ADME, organism-based; details: in vivo
[7] = Unbound plasma clearance in iv dosed non-naive Beagle dog; format: ADME, organism-based, Canis lupus familiaris; details: in vivo
[8] = Unbound plasma clearance in iv dosed Cynomolgus monkey; format: ADME, organism-based, Macaca fascicularis; details: in vivo
[9] = Volume of distribution in C57BL/6J mouse; format: ADME; details: in vivo
[10] = Volume of distribution in Sprague-Dawley rat; format: ADME; details: in vivo
[11] = Volume of distribution in non-naive Beagle dog; format: ADME, Canis lupus familiaris; details: in vivo
[12] = Volume of distribution in Cynomolgus monkey; format: ADME, Macaca fascicularis; details: in vivo
[13] = Half life in iv dosed C57BL/6J mouse; format: ADME, organism-based; details: in vivo
[14] = Half life in iv dosed Sprague-Dawley rat; format: ADME, organism-based; details: in vivo
[15] = Half life in iv dosed non-naive Beagle dog; format: ADME, organism-based, Canis lupus familiaris; details: in vivo
[16] = Half life in iv dosed Cynomolgus monkey; format: ADME, organism-based, Macaca fascicularis; details: in vivo
[17] = Oral bioavailability in Sprague-Dawley rat at 5 mg/kg; format: ADME, organism-based; details: in vivo
[18] = Oral bioavailability in C57BL/6J mouse at 10 mg/kg; format: ADME, organism-based; details: in vivo
[19] = Oral bioavailability in non-naive Beagle dog at 1 mg/kg; format: ADME, organism-based, Canis lupus familiaris; details: in vivo
[20] = Oral bioavailability in Cynomolgus monkey at 1 mg/kg; format: ADME, organism-based, Macaca fascicularis; details: in vivo
[21] = Lipophilicity, logD of the compound at pH 7.4 by shake flask method based LC-MS analysis; format: physicochemical; details: buffer
[22] = Kinetic solubility of compound in PBS at pH 7.4; format: physicochemical; details: read-out: Kinetic_solubility
[23] = molecular target: T1, Mitogen-activated protein kinase kinase kinase 14 (Homo sapiens, UniProt Q99558); assay: Inhibition of NIK in HEK-293 cells assessed as inhibition of NIK-dependent NF-kappaB response element expression by firefly luciferase reporter gene based analysis; format: cell-based, HEK293
T1 sequence (Q99558 whole entry): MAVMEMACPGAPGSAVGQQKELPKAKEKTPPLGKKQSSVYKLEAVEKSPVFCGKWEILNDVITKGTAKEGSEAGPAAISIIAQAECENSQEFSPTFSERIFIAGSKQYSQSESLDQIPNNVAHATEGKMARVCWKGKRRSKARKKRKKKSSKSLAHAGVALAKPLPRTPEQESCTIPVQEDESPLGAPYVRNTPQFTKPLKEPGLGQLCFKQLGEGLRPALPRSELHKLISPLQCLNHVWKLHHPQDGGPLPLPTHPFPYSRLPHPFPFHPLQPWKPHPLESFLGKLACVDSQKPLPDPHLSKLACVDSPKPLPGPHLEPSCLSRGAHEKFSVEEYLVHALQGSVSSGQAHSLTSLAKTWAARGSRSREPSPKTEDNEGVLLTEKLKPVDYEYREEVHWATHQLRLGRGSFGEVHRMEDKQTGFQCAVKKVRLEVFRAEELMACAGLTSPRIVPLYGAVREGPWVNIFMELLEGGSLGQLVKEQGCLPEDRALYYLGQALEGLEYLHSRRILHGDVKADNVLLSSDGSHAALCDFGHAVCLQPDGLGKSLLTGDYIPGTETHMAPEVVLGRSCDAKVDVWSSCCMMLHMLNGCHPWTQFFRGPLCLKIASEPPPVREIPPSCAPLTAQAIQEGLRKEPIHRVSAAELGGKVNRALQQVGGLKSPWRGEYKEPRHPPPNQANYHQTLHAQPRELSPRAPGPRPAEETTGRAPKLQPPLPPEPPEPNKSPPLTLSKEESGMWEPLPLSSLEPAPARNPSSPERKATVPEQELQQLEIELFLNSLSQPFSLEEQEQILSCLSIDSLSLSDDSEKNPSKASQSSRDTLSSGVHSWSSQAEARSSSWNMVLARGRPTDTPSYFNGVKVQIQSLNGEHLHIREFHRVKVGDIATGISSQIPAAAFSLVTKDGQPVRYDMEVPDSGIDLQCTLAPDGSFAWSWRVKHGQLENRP

[24] = Inhibition of Herpes simplex virus thymidine kinase in HEK293 cells by Renilla luciferase based assay; format: cell-based; details: Herpesviridae sp.
HEK293 = assay: Inhibition of Herpes simplex virus thymidine kinase in HEK293 cells assessed as maximal inhibition by Renilla luciferase based assay relative to control; format: cell-based; details: Herpesviridae sp.
[25] = molecular target: T1, Mitogen-activated protein kinase kinase kinase 14; assay: Inhibition of NIK in HUVEC cells assessed as inhibition of anti-[…]-stimulated p52 nuclear translocation; format: cell-based
[26] = Hepatic clearance in human liver microsomes; format: ADME, Microsome
[27] = Hepatic clearance in rat liver microsomes; format: ADME, Microsome
[28] = Hepatic clearance in mouse liver microsomes; format: ADME, Microsome
[29] = Hepatic clearance in dog liver microsomes; format: ADME, Canis lupus familiaris, Microsome
[30] = Hepatic clearance in cynomolgus monkey liver microsomes; format: ADME, Macaca fascicularis, Microsome
[31] = Hepatic clearance in human hepatocytes; format: ADME, cell-based, Hepatocyte
[32] = Hepatic clearance in rat hepatocytes; format: ADME, cell-based, Hepatocyte
[33] = Hepatic clearance in mouse hepatocytes; format: ADME, cell-based, Hepatocyte
[34] = Hepatic clearance in dog hepatocytes; format: ADME, cell-based, Canis lupus familiaris, Hepatocyte
[35] = Hepatic clearance in cynomolgus monkey hepatocytes; format: ADME, cell-based, Macaca fascicularis, Hepatocyte
[36] = molecular target: T1, Mitogen-activated protein kinase kinase kinase 14; assay: Inhibition of NIK (unknown origin) catalyzed ATP hydrolysis by fluorescence polarization method
[37] = molecular target: Mitogen-activated protein kinase kinase kinase kinase 5 (Homo sapiens) (UniProt Q9Y4K4); assay: Inhibition of recombinant human KHS1 at 1 uM relative to control
[38] = molecular target: Leucine-rich repeat serine/threonine-protein kinase 2 (Homo sapiens) (UniProt Q5S007); assay: Inhibition of recombinant human LRRK2 at 1 uM relative to control
Sequence of Leucine-rich repeat serine/threonine-protein kinase 2 (Homo sapiens) (Q5S007 whole entry): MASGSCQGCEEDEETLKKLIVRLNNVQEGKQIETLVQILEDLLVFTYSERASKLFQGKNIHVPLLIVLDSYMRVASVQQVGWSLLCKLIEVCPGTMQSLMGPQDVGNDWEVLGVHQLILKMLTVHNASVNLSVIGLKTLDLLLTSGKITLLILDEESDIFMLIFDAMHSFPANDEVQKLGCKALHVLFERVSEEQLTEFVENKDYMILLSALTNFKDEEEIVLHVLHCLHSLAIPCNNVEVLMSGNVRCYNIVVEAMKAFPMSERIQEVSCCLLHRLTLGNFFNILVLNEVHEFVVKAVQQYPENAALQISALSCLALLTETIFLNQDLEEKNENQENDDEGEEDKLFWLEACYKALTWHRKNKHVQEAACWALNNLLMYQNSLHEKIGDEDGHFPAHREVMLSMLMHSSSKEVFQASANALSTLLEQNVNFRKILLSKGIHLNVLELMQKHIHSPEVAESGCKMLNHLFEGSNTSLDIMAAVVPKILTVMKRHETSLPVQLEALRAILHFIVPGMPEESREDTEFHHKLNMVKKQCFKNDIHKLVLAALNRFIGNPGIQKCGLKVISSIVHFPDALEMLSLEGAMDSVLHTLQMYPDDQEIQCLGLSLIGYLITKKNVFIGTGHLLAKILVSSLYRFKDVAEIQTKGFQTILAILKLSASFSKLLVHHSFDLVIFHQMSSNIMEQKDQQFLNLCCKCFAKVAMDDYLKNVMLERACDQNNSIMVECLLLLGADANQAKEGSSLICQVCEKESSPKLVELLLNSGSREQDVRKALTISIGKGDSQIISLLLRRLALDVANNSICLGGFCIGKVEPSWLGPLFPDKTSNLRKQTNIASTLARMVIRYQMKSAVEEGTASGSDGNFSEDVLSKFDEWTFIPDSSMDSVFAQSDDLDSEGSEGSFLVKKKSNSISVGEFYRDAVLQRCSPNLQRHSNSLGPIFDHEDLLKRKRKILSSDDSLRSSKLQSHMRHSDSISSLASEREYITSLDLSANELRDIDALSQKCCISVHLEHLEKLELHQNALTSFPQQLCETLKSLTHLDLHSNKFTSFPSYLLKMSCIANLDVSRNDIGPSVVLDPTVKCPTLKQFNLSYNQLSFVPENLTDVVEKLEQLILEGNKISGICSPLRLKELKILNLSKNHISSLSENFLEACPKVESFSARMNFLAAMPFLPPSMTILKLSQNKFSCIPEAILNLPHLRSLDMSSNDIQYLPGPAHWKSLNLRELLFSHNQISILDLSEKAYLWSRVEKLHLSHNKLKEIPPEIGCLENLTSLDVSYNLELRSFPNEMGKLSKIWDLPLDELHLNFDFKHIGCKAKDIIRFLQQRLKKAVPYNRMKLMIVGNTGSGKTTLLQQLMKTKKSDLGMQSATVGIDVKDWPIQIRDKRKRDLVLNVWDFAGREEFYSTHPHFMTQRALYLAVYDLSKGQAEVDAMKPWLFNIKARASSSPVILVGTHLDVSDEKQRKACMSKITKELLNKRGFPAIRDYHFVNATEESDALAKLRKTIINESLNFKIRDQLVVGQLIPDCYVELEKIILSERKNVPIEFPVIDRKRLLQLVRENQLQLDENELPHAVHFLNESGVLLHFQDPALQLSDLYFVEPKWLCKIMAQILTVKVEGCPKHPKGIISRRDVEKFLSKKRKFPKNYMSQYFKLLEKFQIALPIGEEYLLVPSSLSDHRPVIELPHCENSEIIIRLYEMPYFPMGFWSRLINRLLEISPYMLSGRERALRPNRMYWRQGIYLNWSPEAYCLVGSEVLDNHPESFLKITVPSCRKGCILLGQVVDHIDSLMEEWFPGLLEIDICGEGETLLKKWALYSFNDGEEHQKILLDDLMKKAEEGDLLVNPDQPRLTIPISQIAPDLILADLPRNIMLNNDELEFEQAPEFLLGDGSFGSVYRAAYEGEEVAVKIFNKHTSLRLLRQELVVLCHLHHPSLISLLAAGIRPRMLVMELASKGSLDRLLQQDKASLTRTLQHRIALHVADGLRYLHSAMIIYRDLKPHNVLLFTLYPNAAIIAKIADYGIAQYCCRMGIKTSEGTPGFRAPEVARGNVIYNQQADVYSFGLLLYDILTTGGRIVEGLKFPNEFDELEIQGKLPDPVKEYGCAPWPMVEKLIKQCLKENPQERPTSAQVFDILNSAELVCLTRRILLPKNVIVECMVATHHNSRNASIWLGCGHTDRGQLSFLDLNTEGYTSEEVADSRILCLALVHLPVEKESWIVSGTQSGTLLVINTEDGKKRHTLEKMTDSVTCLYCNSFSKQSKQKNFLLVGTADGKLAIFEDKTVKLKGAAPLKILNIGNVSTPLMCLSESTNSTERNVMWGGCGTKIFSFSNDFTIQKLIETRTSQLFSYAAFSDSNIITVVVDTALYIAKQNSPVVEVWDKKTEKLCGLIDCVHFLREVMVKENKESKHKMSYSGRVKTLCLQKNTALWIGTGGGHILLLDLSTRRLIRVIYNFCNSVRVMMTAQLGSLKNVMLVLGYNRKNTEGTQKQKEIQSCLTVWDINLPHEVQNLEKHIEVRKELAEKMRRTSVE

[39] = molecular target: T1, Mitogen-activated protein kinase kinase kinase 14; assay: Inhibition of NIK in human primary B cell assessed as inhibition of CD40L-stimulated nuclear translocation of p52 in cell based assay
[40] = molecular target: Serine/threonine-protein kinase D1 (Homo sapiens) (UniProt Q15139); assay: Inhibition of recombinant human PKD1 at 1 uM relative to control
Sequence of Serine/threonine-protein kinase D1 (Homo sapiens) (Q15139 whole entry, looked up): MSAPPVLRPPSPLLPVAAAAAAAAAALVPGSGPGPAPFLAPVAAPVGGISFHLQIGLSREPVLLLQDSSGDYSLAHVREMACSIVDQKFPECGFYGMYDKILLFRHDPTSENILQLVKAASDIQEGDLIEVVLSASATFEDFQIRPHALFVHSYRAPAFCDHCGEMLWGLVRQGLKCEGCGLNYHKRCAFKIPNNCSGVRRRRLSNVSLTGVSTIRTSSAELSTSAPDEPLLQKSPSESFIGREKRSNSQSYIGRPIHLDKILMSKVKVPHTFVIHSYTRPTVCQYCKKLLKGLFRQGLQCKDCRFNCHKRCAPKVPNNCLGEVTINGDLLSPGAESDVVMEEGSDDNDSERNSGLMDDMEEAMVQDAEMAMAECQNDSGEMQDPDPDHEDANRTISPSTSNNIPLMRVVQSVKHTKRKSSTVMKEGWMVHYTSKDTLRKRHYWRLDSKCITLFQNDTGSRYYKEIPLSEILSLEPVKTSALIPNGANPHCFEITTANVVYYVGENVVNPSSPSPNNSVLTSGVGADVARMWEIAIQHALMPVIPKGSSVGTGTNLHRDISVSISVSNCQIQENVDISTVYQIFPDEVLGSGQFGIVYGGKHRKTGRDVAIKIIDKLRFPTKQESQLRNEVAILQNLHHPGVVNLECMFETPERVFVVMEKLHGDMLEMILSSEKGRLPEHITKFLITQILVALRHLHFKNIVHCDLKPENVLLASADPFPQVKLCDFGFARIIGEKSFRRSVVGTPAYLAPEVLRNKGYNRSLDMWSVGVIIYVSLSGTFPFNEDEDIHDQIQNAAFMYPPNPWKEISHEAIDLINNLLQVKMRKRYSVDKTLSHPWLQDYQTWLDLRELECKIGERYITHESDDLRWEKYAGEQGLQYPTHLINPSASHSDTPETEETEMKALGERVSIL

[41] = Oral bioavailability in C57BL/6J mouse at 50 mg/kg; format: ADME, organism-based; details: in vivo
[42] = Oral bioavailability in non-naive Beagle dog at 5 mg/kg; format: ADME, organism-based, Canis lupus familiaris; details: in vivo
[43] = Oral bioavailability in Cynomolgus monkey at 5 mg/kg; format: ADME, organism-based, Macaca fascicularis; details: in vivo

CN1C(=O)[C@](O)(C#Cc2cccc(-n3nc(C(N)=O)c4cccnc43)c2)[C@H]2C[C@H]21
clearance [1]: 11 mL/min/kg
clearance [2]: 42 mL/min/kg
clearance [3]: 7.1 mL/min/kg
clearance [4]: 6.7 mL/min/kg
CL free [5]: 367 mL/min/kg
CL free [6]: 656 mL/min/kg
CL free [7]: 68 mL/min/kg
CL free [8]: 95 mL/min/kg
Vd [9]: 1.1 L/kg
Vd [10]: 2.6 L/kg
Vd [11]: 1.2 L/kg
Vd [12]: 2 L/kg
half-life [13]: 1.5 h
half-life [14]: 0.7 h
half-life [15]: 4.8 h
half-life [16]: 4.9 h
bioavailability [17]: > 100%
bioavailability [18]: 49%
bioavailability [19]: 78%
bioavailability [20]: 65%
logD [21]: 1.8
solubility kinetic [22]: 92 µM (≈ 35.6 µg/mL)
IC50 [23]: 53 nM
IC50 [24]: > 2000 nM
Imax (HEK293): 6%
IC50 [25]: 55 nM
CLhep predicted [26]: 5.8 mL/min/kg
CLhep predicted [27]: 18 mL/min/kg
CLhep predicted [28]: 29 mL/min/kg
CLhep predicted [29]: 14 mL/min/kg
CLhep predicted [30]: 15 mL/min/kg
CLhep predicted [31]: < 6.2 mL/min/kg
CLhep predicted [32]: < 10 mL/min/kg
CLhep predicted [33]: < 21 mL/min/kg
CLhep predicted [34]: < 7.8 mL/min/kg
CLH [35]: < 8.8 mL/min/kg
IC50 [36]: 2 nM
inhibition [37]: 89%
inhibition [38]: 6%
IC50 [39]: 330 nM
inhibition [40]: 79%

CN1CC[C@@](O)(C#Cc2cccc(-n3nc(C(N)=O)c4cccnc43)c2)C1=O
Vd [9]: 0.5 L/kg
Vd [10]: 2.9 L/kg
Vd [11]: 0.8 L/kg
Vd [12]: 1.1 L/kg
bioavailability [41]: 72%
bioavailability [17]: 62%
bioavailability [42]: 44%
bioavailability [43]: > 100%
solubility kinetic [22]: 122 µM (≈ 45.8 µg/mL)
IC50 [24]: > 2000 nM
Imax (HEK293): 7%
inhibition [38]: 59%

COc1cc(C(N)=O)nc(-c2cccc(C#C[C@]3(O)CCN(C)C3=O)c2)c1
inhibition [38]: 82%
